Results published in US20080248511A1, “METHODS TO QUENCH LIGHT FROM OPTICAL REACTIONS” (priority 2007, published 2008).
Like-named read-outs stand apart in the source and are kept apart here.

Experiments:
firefly luciferase [1] = molecular target: T1, firefly luciferase (Photinus pyralis, UniProt P08659); test: Detergent screen with Tergitol NP-9, firefly luciferase (Example 3); type: biochemical; settings: 0.06% quencher in reagent solution; 0.5% Tergitol NP-9
Experimental: (§1) Unless otherwise specified, materials were obtained from Sigma-Aldrich.
(§2) The firefly luciferase and Renilla luciferase enzymes were diluted as follows. Firefly luciferase was diluted to 14 ng/ml in Delbecco's Minimal Essential (DMEM) medium (Gibco/Invitrogen) containing 0.1% Prionex®. Renilla luciferase was diluted to 10 ng/ml in DMEM medium containing 0.1% Prionex®.
(§3) The luciferase reactions were initiated by adding 50 μl of the firefly luciferase or Renilla luciferase enzyme solution to 50 μl of reagent solution. The reactions were performed as described above. The retained firefly luciferase and Renilla luciferase luminescence as well as the selectivity values for each quencher were calculated (Table 3). The values listed are based on 0.06% quencher in the reagent solution.

Renilla luciferase [2] = molecular target: T2, Renilla luciferase (Renilla reniformis, UniProt P27652); test: Detergent screen with Tergitol NP-9, Renilla luciferase (Example 3); type: biochemical; settings: 0.5% Tergitol NP-9; for Retained Renilla Luminescence (%): 0.06% quencher in reagent solution; for Selectivity Value: retained firefly / retained Renilla, 0.06% quencher
T2 sequence (P27652 1-311): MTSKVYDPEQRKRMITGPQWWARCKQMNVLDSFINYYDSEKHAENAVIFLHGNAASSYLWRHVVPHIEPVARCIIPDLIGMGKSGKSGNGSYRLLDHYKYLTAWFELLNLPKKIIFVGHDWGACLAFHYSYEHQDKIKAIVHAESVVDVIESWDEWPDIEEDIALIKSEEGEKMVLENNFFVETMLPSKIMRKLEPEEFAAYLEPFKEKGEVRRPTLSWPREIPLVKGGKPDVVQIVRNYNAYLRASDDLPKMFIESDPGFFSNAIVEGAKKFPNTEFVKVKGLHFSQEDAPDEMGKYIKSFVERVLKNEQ
Experimental: as §1, §2, §3

Renilla luciferase [3] = molecular target: T2, Renilla luciferase; test: biochemical; type: biochemical
Experimental: (§4) The retained luminescence for each luciferase was calculated by dividing the luminescence in the presence of the detergent by the luminescence in the absence of the test detergent. The selectivity value for each of the test detergents was determined by dividing the retained firefly luciferase luminescence by the retained Renilla luciferase luminescence.
(§5) A set of detergents (Table 2; Sigma-Aldrich) was added at 0.5% (from a 5% or 10% stock solution) to either Luciferase Assay Reagent (Promega) or Renilla Luciferase Assay Reagent (Promega) and allowed to equilibrate at room temperature.
(§6) The firefly luciferase and Renilla luciferase enzymes were diluted as follows. Firefly luciferase was diluted to 14 ng/ml in Phosphate Buffered Saline (PBS) containing 0.1% of the protein carrier Prionex® (Pentapharm). Renilla luciferase was diluted to 10 ng/ml in 1× Renilla Luciferase Lysis Buffer (Promega) containing 0.1% Prionex®. The Renilla Luciferase Lysis Buffer […] detergent micelles when using the Renilla Luciferase Assay Reagent. In the absence of other detergents, this prevents sequestering of coelenterazine which inhibits Renilla luciferase-mediated luminescence.
(§7) The luciferase reactions were initiated by adding 40 μl of either the firefly or Renilla luciferase enzyme solution to 200 μl of the appropriate reagent solution (firefly luciferase enzyme solution+firefly luciferase reagent solution or Renilla luciferase enzyme solution+Renilla luciferase reagent solution, respectively). The reactions were performed in an opaque white, 96-well plate and luminescence was measured for 0.5 seconds per well using a Turner BioSystems Veritas™ Microplate luminometer. The retained firefly luciferase and Renilla luciferase luminescence, as well as the selectivity values for each detergent, were calculated (Table 2).

firefly luciferase [4] = molecular target: T1, firefly luciferase; test: biochemical; settings: 0.5% detergent in Luciferase Assay Reagent; read-out: Retained Firefly Luciferase Luminescence (%)
Experimental: as §4, §5, §6, §7

Renilla luciferase [5] = molecular target: T2, Renilla luciferase; test: Detergent titration with Tergitol NP-9, digitonin or no lysing agent, Renilla luciferase (Example 4); type: biochemical; settings: for remaining activity at 0.0005 % / remaining activity at 0.005 % / remaining activity at 0.05 %: read-out: Relative Renilla Luc Intensity
Experimental: Renilla luciferase-mediated luminescence was measured from samples containing 9.6 mM phosphate buffer pH 6.8, 2.7 mM KCl, 137 mM NaCl (in PBS), 0.1% gelatin, 75 nM coelentrazine (Promega) and 10.2 ng/ml Renilla luciferase. Reactions contained either no lysing agent, 0.5% Tergitol NP-9 or 20 μg/ml digitonin. The detergents to be tested were titrated to 0.05%, 0.005% or 0.0005% in the reactions prior to the addition of the Renilla luciferase. Renilla luciferase-mediated luminescence was measured as described herein.

firefly luciferase [6] = molecular target: T1, firefly luciferase; test: Detergent titration with Tergitol NP-9, digitonin or no lysing agent, firefly luciferase (Example 4); type: biochemical; settings: read-out: Relative Firefly Luc Intensity; for remaining activity at 0.0005 %: 0.0005% detergent; for remaining activity at 0.005 %: 0.0050% detergent; for remaining activity at 0.05 %: 0.0500% detergent
Experimental: For measurement of firefly luciferase-mediated luminescence, a solution containing 110 mM HEPES pH 7.5, 8 mM MgSO4, 0.05% gelatin, 7.35 ng/ml firefly luciferase (QuantiLum® Luciferase; Promega) and the content of the Steady-Glo Luciferase Substrate (Promega) at the equivalent of 1×, As in the Renilla luciferase reactions, reactions contained either no lysing agent, 0.5% Tergitol NP-9 or 20 μg/ml digitonin. The same detergents were titrated as described above and firefly luciferase-mediated luminescence was measured.

T1 sequence (P08659 whole entry): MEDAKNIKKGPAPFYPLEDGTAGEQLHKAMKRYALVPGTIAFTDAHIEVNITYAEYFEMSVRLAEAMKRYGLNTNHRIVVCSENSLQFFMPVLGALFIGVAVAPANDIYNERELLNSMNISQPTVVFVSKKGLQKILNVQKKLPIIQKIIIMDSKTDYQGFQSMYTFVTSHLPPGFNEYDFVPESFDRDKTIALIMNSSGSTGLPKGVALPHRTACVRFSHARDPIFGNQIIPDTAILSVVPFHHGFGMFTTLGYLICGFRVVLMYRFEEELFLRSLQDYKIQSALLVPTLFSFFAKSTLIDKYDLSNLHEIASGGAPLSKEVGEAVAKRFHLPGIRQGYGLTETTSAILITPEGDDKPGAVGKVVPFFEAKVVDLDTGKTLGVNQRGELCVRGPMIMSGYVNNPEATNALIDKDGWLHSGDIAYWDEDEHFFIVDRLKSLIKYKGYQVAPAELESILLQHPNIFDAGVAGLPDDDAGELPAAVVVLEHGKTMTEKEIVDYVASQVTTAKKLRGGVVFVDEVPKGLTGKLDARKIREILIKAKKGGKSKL

CCCCCCCCCCCCOCC[N+](C)(C)Cc1ccccc1.[Cl-] [Benzyldimethyl(2-dodecyloxethyl)ammonium chloride]
Retained Firefly Luminescence (%) (firefly luciferase [1]): 174.0% | Retained Renilla Luminescence (%) (Renilla luciferase [2]): 20.5% | Selectivity Value (Renilla luciferase [2]): 8.5

CCCCCCCCCCCCCC[N+](C)(C)Cc1ccccc1.[Br-] [Benzyldimethyltetradecylammonium bromide]
remaining activity at 0.5 % (Renilla luciferase [3]; 0.5% detergent in Renilla Luciferase Assay Reagent, read-out: Retained Renilla Luciferase Luminescence (%)): 0.13% | Selectivity Value (Renilla luciferase [3]; retained firefly / retained Renilla, 0.5% detergent): 1.6 | remaining activity at 0.5 % (firefly luciferase [4]): 0.21% | Selective Inhibition (Ff Luc Inh/Ren Luc Inh) (Renilla luciferase [5]; 0.0005% detergent, Dig): 11.0 | remaining activity at 0.0005 % (Renilla luciferase [5]; 0.0005% detergent, Dig): 14% | Selective Inhibition (Ff Luc Inh/Ren Luc Inh) (Renilla luciferase [5]; 0.0005% detergent, Terg): 1.0 | remaining activity at 0.0005 % (Renilla luciferase [5]; 0.0005% detergent, Terg): 96% | Selective Inhibition (Ff Luc Inh/Ren Luc Inh) (Renilla luciferase [5]; 0.0005% detergent, Water): 10.2 | remaining activity at 0.0005 % (Renilla luciferase [5]; 0.0005% detergent, Water): 12% | Selective Inhibition (Ff Luc Inh/Ren Luc Inh) (Renilla luciferase [5]; 0.0050% detergent, Dig): 5067 | remaining activity at 0.005 % (Renilla luciferase [5]; 0.0050% detergent, Dig): 0.03% | Selective Inhibition (Ff Luc Inh/Ren Luc Inh) (Renilla luciferase [5]; 0.0050% detergent, Terg): 1.3 | remaining activity at 0.005 % (Renilla luciferase [5]; 0.0050% detergent, Terg): 70% | Selective Inhibition (Ff Luc Inh/Ren Luc Inh) (Renilla luciferase [5]; 0.0050% detergent, Water): 7068 | remaining activity at 0.005 % (Renilla luciferase [5]; 0.0050% detergent, Water): 0.01% | remaining activity at 0.05 % (Renilla luciferase [5]; 0.0500% (w:v) detergent, Terg (0.5% Tergitol NP-9)): 5% | Selective Inhibition (Ff Luc Inh/Ren Luc Inh) (Renilla luciferase [5]; 0.0500% detergent, Dig): 60 | remaining activity at 0.05 % (Renilla luciferase [5]; 0.0500% detergent, Dig (20 μg/ml digitonin)): 0.02% | Selective Inhibition (Ff Luc Inh/Ren Luc Inh) (Renilla luciferase [5]; 0.0500% detergent, Terg): 10 | Selective Inhibition (Ff Luc Inh/Ren Luc Inh) (Renilla luciferase [5]; 0.0500% detergent, Water): 451 | remaining activity at 0.05 % (Renilla luciferase [5]; 0.0500% detergent, Water (no lysing agent)): 0.02% | remaining activity at 0.0005 % (firefly luciferase [6]; Dig): 155% | remaining activity at 0.0005 % (firefly luciferase [6]; Terg): 98% | remaining activity at 0.0005 % (firefly luciferase [6]; Water): 126% | remaining activity at 0.005 % (firefly luciferase [6]; Dig): 128% | remaining activity at 0.005 % (firefly luciferase [6]; Terg): 93% | remaining activity at 0.005 % (firefly luciferase [6]; Water): 106% | remaining activity at 0.05 % (firefly luciferase [6]; Dig (20 μg/ml digitonin)): 1.4% | remaining activity at 0.05 % (firefly luciferase [6]; Terg (0.5% Tergitol NP-9)): 45% | remaining activity at 0.05 % (firefly luciferase [6]; Water (no lysing agent)): 10%

CCCCCCCCCCCC[N+](C)(C)Cc1ccc2c(c1)CCCC2.[Cl-] [Dimethyldodecyl(5,6,7,8-tetrahydro-2-naphthylmethyl)ammonium chloride]
Retained Firefly Luminescence (%) (firefly luciferase [1]): 112.0% | Retained Renilla Luminescence (%) (Renilla luciferase [2]): 118.0% | Selectivity Value (Renilla luciferase [2]): 0.9
